The results in this text go back to patent publication US20230184746A1, “HIGH-SENSITIVITY DETECTION OF GPCR ACTIVITY AND USES THEREOF” (Firmenich Incorporated, priority 2020, published 2023).

Molecules are shown by their SMILES. “Also recorded” adds a separate entry of the source.

Format in all cases: cell-based
Test [1] has as its target T1, human sweet taste receptor (hT1R2/hT1R3) (Homo sapiens, UniProt Q7RTX0+Q8TE23, C757R/I191V/I486V/R317G).
T1 construct: expressed in transfected cells
T1 sequence (Q8TE23 20-839 I191V/R317G/I486V): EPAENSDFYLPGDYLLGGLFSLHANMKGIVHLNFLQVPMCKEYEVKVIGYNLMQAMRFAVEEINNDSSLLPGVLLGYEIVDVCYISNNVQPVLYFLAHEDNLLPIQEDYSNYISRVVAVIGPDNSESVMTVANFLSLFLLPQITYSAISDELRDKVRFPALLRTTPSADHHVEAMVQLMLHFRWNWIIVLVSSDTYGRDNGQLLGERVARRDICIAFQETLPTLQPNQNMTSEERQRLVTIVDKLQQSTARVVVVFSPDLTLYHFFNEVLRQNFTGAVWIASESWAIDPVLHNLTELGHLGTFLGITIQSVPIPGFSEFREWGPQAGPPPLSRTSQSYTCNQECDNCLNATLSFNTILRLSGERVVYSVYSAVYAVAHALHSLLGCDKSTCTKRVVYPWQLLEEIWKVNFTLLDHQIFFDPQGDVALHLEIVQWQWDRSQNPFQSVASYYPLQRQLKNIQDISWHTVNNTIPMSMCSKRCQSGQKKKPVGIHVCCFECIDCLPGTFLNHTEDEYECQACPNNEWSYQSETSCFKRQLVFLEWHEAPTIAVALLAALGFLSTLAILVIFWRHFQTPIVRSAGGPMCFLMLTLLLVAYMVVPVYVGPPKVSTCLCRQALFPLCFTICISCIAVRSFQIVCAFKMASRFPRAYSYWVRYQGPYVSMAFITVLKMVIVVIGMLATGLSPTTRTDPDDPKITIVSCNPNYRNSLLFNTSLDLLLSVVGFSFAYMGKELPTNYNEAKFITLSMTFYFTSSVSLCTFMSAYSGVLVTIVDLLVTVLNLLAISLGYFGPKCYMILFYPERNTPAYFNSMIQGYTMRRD
T1 sequence (Q7RTX0 21-852 C757R): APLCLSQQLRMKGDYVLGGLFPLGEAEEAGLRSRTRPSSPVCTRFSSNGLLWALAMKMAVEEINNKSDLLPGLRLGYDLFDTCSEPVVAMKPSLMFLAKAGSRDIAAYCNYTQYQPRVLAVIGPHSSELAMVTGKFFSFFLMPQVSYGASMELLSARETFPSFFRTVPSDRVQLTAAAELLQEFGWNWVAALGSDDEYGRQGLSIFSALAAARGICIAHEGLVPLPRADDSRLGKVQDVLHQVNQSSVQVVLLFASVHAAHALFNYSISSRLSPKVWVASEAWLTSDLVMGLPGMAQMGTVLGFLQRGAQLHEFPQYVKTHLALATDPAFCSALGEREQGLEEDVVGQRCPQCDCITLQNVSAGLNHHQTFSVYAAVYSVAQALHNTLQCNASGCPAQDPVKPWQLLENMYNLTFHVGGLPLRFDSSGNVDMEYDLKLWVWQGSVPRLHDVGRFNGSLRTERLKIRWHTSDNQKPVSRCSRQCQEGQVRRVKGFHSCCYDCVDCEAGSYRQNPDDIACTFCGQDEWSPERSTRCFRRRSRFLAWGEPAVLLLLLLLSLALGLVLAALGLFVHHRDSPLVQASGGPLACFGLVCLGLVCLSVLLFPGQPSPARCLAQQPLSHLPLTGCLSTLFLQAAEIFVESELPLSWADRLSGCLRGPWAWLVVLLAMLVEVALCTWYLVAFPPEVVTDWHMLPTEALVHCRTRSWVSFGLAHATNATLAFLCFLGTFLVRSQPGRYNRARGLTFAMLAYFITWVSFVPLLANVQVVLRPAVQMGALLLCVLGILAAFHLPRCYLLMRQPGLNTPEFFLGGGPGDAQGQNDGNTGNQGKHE
In words: Bias plotting analysis: DMR assay with R2/R3 U2OS cells vs FLIPR-calcium mobilization assay with R2/R3 U2OS cells expressing Gα15. The settings on record: equimolar concentrations; data normalized to 1 mM sucralose; relative to other sweeteners. As to the method:
(§1) Untransfected U2OS cells were cultured at 37° C. and 5% CO2 in McCoy's 5A medium (modified, GIBCO#16600) supplemented with 10% fetal bovine serum and penicillin/streptomycin. Plasmids encoding hT1R2 in pEAK10-puromycin and hT1R3 in pcDNA3.1-zeocin were linearized and transfected into U2OS cells followed by dilution and double selection in growth medium plus 0.5 μg/m1puromycin and 100 μg/mlzeocin. Individual colonies were expanded and transiently transfected with a Gα6gust25 expression construct to identify functional clones using sucralose as the agonist in a Ca2+ imaging assay. […] The lidded Epic® 384 microplate and polypropylene compound plate (Corning) were loaded into the carousel of the Epic® reader, the target plate was washed with DMSO matched D-PBS using the Corning Epic® Liquid Handling Accessory (LHA) and equilibrated in 25 μL of DMSO matched D-PBS for 90 minutes. After recording the baseline activity for 5 to 8 minutes, 25 μL of 2× concentrated solution of sweetener, agonist or a mixture of agonist and modulator, diluted in D-PBS, was added using the LHA and the DMR responses which measures a shift in the resonance wavelength, were monitored for an additional 30 minutes. […]
(§2) In FIG. 2A known sweeteners and new agonists were evaluated in the DMR assay with R2/R3 U2OS cells using a dose-response analysis. […]

The test system of a further test is parental U2OS cells. Put plainly: DMR assay (Epic reader) with parental U2OS cells. The following applies: parental (untransfected) U2OS cells, increasing concentrations. As to the method: as §1, with “assay. […] (R2/R3 U2OS cells) were seeded on Epic®384 microplates (Corning) at a density of 16,000 cells/well in 40 pt of assay media using a multidrop (Thermo Scientific).” for “assay.”

For test [2], the target named is T1, human sweet taste receptor (hT1R2/hT1R3). Put plainly: DMR assay (Epic reader) with R2/R3 U2OS cells. The following applies: increasing concentrations, no overexpressed G protein. As to the method: as §1, §2

For the molecule `COC(=O)[C@H](Cc1ccccc1)NC(=O)[C@H](CC(=O)O)NCCC(C)(C)C` [Neotame], in test [1], the “Bias between FLIPR assay and DMR (EPIC) assay” value is “more active in the FLIPR assay; also recorded: clear bias for the FLIPR assay”.

As to `CCCOc1ccc([N+](=O)[O-])cc1N` [P-4000], the “Bias between FLIPR assay and DMR (EPIC) assay” value in test [1] is given as “more active in the FLIPR assay; also recorded: clear bias for the FLIPR assay”.

In the case of `OC[C@H]1O[C@H](O[C@]2(CCl)O[C@H](CCl)[C@@H](O)[C@@H]2O)[C@H](O)[C@@H](O)[C@H]1Cl` [sucralose], the “DMR signal (shift in resonance wavelength)” value in the test on parental U2OS cells is on record as “does not cause a comparable positive DMR signal”; in test [2], “positive DMR signal”.
